Measurements taken from ChEMBL document CHEMBL5335856, “Structurally Diverse Alkaloids with Anti-Renal-Fibrosis Activity from the Centipede Scolopendra subspinipes mutilans” (J Nat Prod, 2024).
Active and inactive are the calls of the source.

What was measured:
Format in all cases: functional, cell-based
RAW264.7 [1] = assay: Antiinflammatory activity against LPS-induced mouse RAW264.7 cells assessed as reduction in iNOS protein level at 20 uM
RAW264.7 [2] = assay: Antiinflammatory activity against LPS-induced mouse RAW264.7 cells assessed as reduction in COX-2 protein level at 20 uM
NRK-52E [3] = assay: Anti-renal-fibrosis activity in TGF-beta1 induced rat NRK-52E cells assessed as downregulation of fibronectin protein level at 20 uM by Western blot analysis
NRK-52E [4] = assay: Anti-renal-fibrosis activity in TGF-beta1 induced rat NRK-52E cells assessed as downregulation of collagen I protein level at 20 uM by Western blot analysis
NRK-52E [5] = assay: Anti-renal-fibrosis activity in TGF-beta1 induced rat NRK-52E cells assessed as downregulation of alpha-SMA protein level at 20 uM by Western blot analysis

Measured: Activity

Oc1cnc2c(O)cccc2c1
active: RAW264.7 [1] | RAW264.7 [2]

N=C(N)N1CCC[C@H]1c1ccc2cc(O)cnc2c1O
active: RAW264.7 [1] | RAW264.7 [2]

COc1cc(=O)n(C)c2c(O)cccc12
active: all assays above

COc1c(O)c(=O)n(C)c2c(O)cccc12
active: all assays above

COc1c(O)cnc2c(O)cccc12
active: RAW264.7 [1] | RAW264.7 [2]

COc1cc(=O)[nH]c2c(OC)cccc12
active: all assays above
